Test results reported in PMC11356819 (Molecules, 2024).

Legend:
U87-WT tumors = test: PET imaging and 2TCM kinetic modelling of subcutaneous U87-WT tumors; format: in vivo
Excerpt: The in vivo tumor uptake and mIDH selectivity of [^18F]4 were investigated by small animal PET imaging in CB17-SCID mice bearing subcutaneous U87-WT and U87-mIDH tumors, which were implanted in the right and left shoulder region, respectively (Figure 6).
Although the use of an image-derived input function instead of an invasive arterial input function could introduce some degree of systematic bias (due to, e.g., a lack of correction for spill-over and metabolism), this should affect the parameter estimation for both tumors in a given animal in the same manner and therefore have little impact on inter-tumor comparisons.
Six male CB17-SCID mice (24–26 g) were used for the subcutaneous tumor model. Twenty-four hours before tumor implantation, the animals were injected (i.p.) with 20 µL anti-asialo GM1 rabbit (Fujifilm Wako Chemicals Europe GmbH, Neuss, Germany) in 0.9% NaCl (total volume: 100 µL) to promote tumor cell survival and growth through a temporary reduction in natural killer cell activity. For tumor inoculation, suspensions of 5 × 10^6 tumor cells in 75 µL culture medium and 75 µL Corning Matrigel (Merck, Darmstadt, Germany) were injected subcutaneously into the right (U87-WT cells) and left (U87-mIDH cells) shoulder region.
(§1) The mice were anesthetized with isoflurane (5% for induction, 2% for maintenance) in O2/air (3:7), and a catheter for tracer injection was inserted into the lateral tail vein. They were placed on an animal holder (Medres, Cologne, Germany) and fixed with a tooth bar in a respiratory mask. Body temperature was maintained at 37 °C by warming the animal bed. Eyes were protected from drying with Bepanthen eye and nose ointment (Bayer, Leverkusen, Germany). Respiratory rate was monitored and maintained at around 40–60 breaths per minute by adjusting the isoflurane concentration. A PET scan in list mode was conducted using a Focus 220 micro PET scanner (CTI-Siemens, Erlangen, Germany) with a resolution at the center of the field of view of 1.4 mm. Data acquisition started with intravenous tracer injection and ended after 120 min. This was followed by a 10 min transmission scan using a ^57Co point source for attenuation correction. After the scan was completed, the catheter was removed and the animals were allowed to wake up in their home cage. Data were histogrammed in three ways: (1) 4 × 30 min frames for visual display, (2) 28 frames (2 × 1 min, 2 × 2 min, 6 × 4 min, 18 × 5 min) for determination of time–activity curves, (3) 53 frames (12 × 10 s, 6 × 30 s, 15 × 1 min, 20 × 5 min) for kinetic modelling. Full 3D rebinning was followed by an iterative OSEM3D/MAP reconstruction algorithm with attenuation and decay correction. The resulting voxel sizes were 0.47 mm × 0.47 mm × 0.80 mm.

[1] = PET biodistribution in healthy mice; format: in vivo, C57BL/6 mice
Experimental: The in vivo stability, whole-body biodistribution and excretory pathways of [^18F]4 were investigated by small animal PET imaging in healthy C57BL/6 mice (Figure 5). […] In contrast, renal excretion was negligible, with very low radioactivity accumulation in the urinary bladder. Background uptake into muscles and other tissues was also low, with maximum SUVbw values of 52 ± 6 after 16 min followed by a decline to 18 ± 2 after 120 min. […] Nevertheless, while limited BBB penetrance might be an issue in patients with an intact BBB, brain tumors like gliomas are often associated with partial BBB disruption, which could facilitate tumor delivery of the probe. […] With this in mind and based on the reasonable in vivo stability and low background uptake, the tumor accumulation and mIDH-selectivity of [^18F]4 were further investigated in a subcutaneous tumor model.
All experiments were carried out in accordance with the EU directive 2010/63/EU for animal experiments and the German Animal Welfare Act (TierSchG, 2006) and were approved by the regional authorities (LANUV NRW; 81-02.04.2022.A442). Six male CB17-SCID mice and four male C57BL/6 mice (Janvier Labs, Le Genest-Saint-Isle, France) were housed in groups in individually ventilated cages (Allentown LLC, Allentown, NJ, USA) in a temperature- and humidity-controlled room (20 ± 2 °C, 50–60% humidity) on a 12:12 h light–dark cycle. Throughout the experiments, the animals had ad libitum access to water and food.
as §1, with “0.80 mm. All further analysis was performed with the software VINCI 5.21 (Max Planck Institute for Metabolism Research, Cologne, Germany). Standardized uptake values based on body weight (SUVbw) were determined according to the following equation: SUVbw = radioactivity [Bq/g] × body weight [g] × 100/injected dose [Bq]. Statistical analysis of the results was performed with a 2-way analysis of variance (ANOVA) followed by Sidak’s multiple comparison test to identify significant differences between the two tumor types.” for “0.80 mm.”

**Q.** With COc1cc(NCc2cc3cc([18F])ccc3[nH]c2=O)ccc1C#N [[^18F]4] as the molecule, how does the “Ratio (WT/mIDH) of SUVbw” value (U87-WT tumors; 0–30 min) read?
**A.** 1.1

**Q.** And the “SUVbw U87-WT” value (U87-WT tumors; 0–30 min)?
**A.** 35 ± 4

**Q.** What about the “Ratio (WT/mIDH) of SUVbw” value (U87-WT tumors; 30–60 min) of the same molecule?
**A.** 1.7

**Q.** What about the “SUVbw U87-WT” value (U87-WT tumors; 30–60 min) of the same molecule?
**A.** 42 ± 9

**Q.** What about the “Ratio (WT/mIDH) of SUVbw” value (U87-WT tumors; 60–90 min) of the same molecule?
**A.** 1.9

**Q.** And the “SUVbw U87-WT” value (U87-WT tumors; 60–90 min)?
**A.** 36 ± 10

**Q.** And the “Ratio (WT/mIDH) of SUVbw” value (U87-WT tumors; 90–120 min)?
**A.** 1.9

**Q.** And the “SUVbw U87-WT” value (U87-WT tumors; 90–120 min)?
**A.** 30 ± 10

**Q.** And the K1 (U87-WT tumors; U87-WT tumor, 2TCM, n = 5)?
**A.** 0.174 ± 0.068 mL/ccm/min

**Q.** And the K1/k2 (U87-WT tumors; U87-WT tumor, 2TCM, n = 5)?
**A.** 0.345 ± 0.172 mL/ccm

**Q.** And the “VS (specific distribution volume)” value (U87-WT tumors; U87-WT tumor, 2TCM, n = 5)?
**A.** 0.576 ± 0.143 mL/ccm

**Q.** And the “VT (total distribution volume)” value (U87-WT tumors; U87-WT tumor, 2TCM, n = 5)?
**A.** 0.921 ± 0.250 mL/ccm

**Q.** And the k2 (U87-WT tumors; U87-WT tumor, 2TCM, n = 5)?
**A.** 0.553 ± 0.238 min⁻¹

**Q.** And the k3 (U87-WT tumors; U87-WT tumor, 2TCM, n = 5)?
**A.** 0.089 ± 0.059 min⁻¹

**Q.** What about the “k3/k4, BPND (non-displaceable binding potential)” value (U87-WT tumors; U87-WT tumor, 2TCM, n = 5) of the same molecule?
**A.** 1.874 ± 0.653 1/1

**Q.** And the k4 (U87-WT tumors; U87-WT tumor, 2TCM, n = 5)?
**A.** 0.044 ± 0.022 min⁻¹

**Q.** And the “max. SUVbw U87-WT tumors” value (U87-WT tumors; after 38 min, n = 3)?
**A.** 45 ± 8

**Q.** And the “max. SUVbw liver” value ([1]; after 3 min, i.v., n = 4)?
**A.** 304 ± 54

**Q.** And the “maximum SUVbw muscles and other tissues (background)” value ([1]; after 16 min)?
**A.** 52 ± 6

**Q.** And the SUVbw bone ([1]; after 120 min)?
**A.** 67 ± 8

**Q.** What about the “SUVbw muscles and other tissues (background)” value ([1]; after 120 min) of the same molecule?
**A.** 18 ± 2

**Q.** What about the “max. SUVbw intestine” value ([1]; after 120 min, i.v., n = 4) of the same molecule?
**A.** 5344 ± 1693

**Q.** What about the excretory pathway ([1]; mouse, in vivo) of the same molecule?
**A.** almost exclusive hepatobiliary excretion

**Q.** And the renal excretion ([1]; mouse, in vivo)?
**A.** negligible

**Q.** What about the “brain uptake of radioactivity” value ([1]; throughout all measurements) of the same molecule?
**A.** very low
